From ChEMBL document CHEMBL5303573, “Mapping human microbiome drug metabolism by gut bacteria and their genes” (Nature, 2019)

Legend:
[1] = The drug is tested on Edwardsiella tarda strain: ATCC23685 for biotransformation. The drug concentrations were measured before and after a 12-h incubation by liquid-chromatography-coupled mass spectrometry (LC–MS); details: 2 µM
[2] = The drug is tested on Ruminococcus lactaris strain: ATCC29176 for biotransformation. The drug concentrations were measured before and after a 12-h incubation by liquid-chromatography-coupled mass spectrometry (LC–MS); details: 2 µM
[3] = The drug is tested on Clostridium sporogenes strain: ATCC15579 for biotransformation. The drug concentrations were measured before and after a 12-h incubation by liquid-chromatography-coupled mass spectrometry (LC–MS); details: 2 µM
[4] = parabacteroides johnsonii, 12 h, 2 µM
Description: The drug is tested on Parabacteroides johnsonii strain: DSM18315 for biotransformation. The drug concentrations were measured before and after a 12-h incubation by liquid-chromatography-coupled mass spectrometry (LC–MS)

[5] = The drug is tested on Bacteroides xylanisolvens strain: DSM18836 for biotransformation. The drug concentrations were measured before and after a 12-h incubation by liquid-chromatography-coupled mass spectrometry (LC–MS); details: 2 µM
[6] = parabacteroides distasonis, 12 h, 2 µM
Description: The drug is tested on Parabacteroides distasonis strain: ATCC8503 for biotransformation. The drug concentrations were measured before and after a 12-h incubation by liquid-chromatography-coupled mass spectrometry (LC–MS)

[7] = The drug is tested on Dorea formicigenerans strain: ATCC27755 for biotransformation. The drug concentrations were measured before and after a 12-h incubation by liquid-chromatography-coupled mass spectrometry (LC–MS); details: 2 µM
[8] = bacteroides intestinalis, 12 h, 2 µM
Description: The drug is tested on Bacteroides intestinalis strain: DSM17393 for biotransformation. The drug concentrations were measured before and after a 12-h incubation by liquid-chromatography-coupled mass spectrometry (LC–MS)

[9] = The drug is tested on Bacteroides sp. WH2 strain: WH2 for biotransformation. The drug concentrations were measured before and after a 12-h incubation by liquid-chromatography-coupled mass spectrometry (LC–MS); details: bacteroides sp. wh2, 12 h, 2 µM
[10] = The drug is tested on Collinsella intestinalis strain: DSM13280 for biotransformation. The drug concentrations were measured before and after a 12-h incubation by liquid-chromatography-coupled mass spectrometry (LC–MS); details: 2 µM
[11] = The drug is tested on Alistipes indistinctus strain: DSM22520 for biotransformation. The drug concentrations were measured before and after a 12-h incubation by liquid-chromatography-coupled mass spectrometry (LC–MS); details: 2 µM
[12] = The drug is tested on Clostridium scindens strain: ATCC35704 for biotransformation. The drug concentrations were measured before and after a 12-h incubation by liquid-chromatography-coupled mass spectrometry (LC–MS); details: 2 µM
[13] = The drug is tested on Eubacterium ventriosum strain: ATCC27560 for biotransformation. The drug concentrations were measured before and after a 12-h incubation by liquid-chromatography-coupled mass spectrometry (LC–MS); assay type: ADME; parameters: dose 2 uM, timepoint 0 vs 12 hours; details: 2 µM
[14] = The drug is tested on Bacteroides fragilis strain: ATCC43859 for biotransformation. The drug concentrations were measured before and after a 12-h incubation by liquid-chromatography-coupled mass spectrometry (LC–MS); details: 2 µM
[15] = The drug is tested on Subdoligranulum variabile strain: DSM15176 for biotransformation. The drug concentrations were measured before and after a 12-h incubation by liquid-chromatography-coupled mass spectrometry (LC–MS); details: 2 µM
[16] = The drug is tested on Parabacteroides merdae strain: ATCC43184 for biotransformation. The drug concentrations were measured before and after a 12-h incubation by liquid-chromatography-coupled mass spectrometry (LC–MS); details: 2 µM
[17] = The drug is tested on Bacteroides pectinophilus strain: ATCC43243 for biotransformation. The drug concentrations were measured before and after a 12-h incubation by liquid-chromatography-coupled mass spectrometry (LC–MS); details: 2 µM
[18] = The drug is tested on Ruminococcus gnavus strain: ATCC29149 for biotransformation. The drug concentrations were measured before and after a 12-h incubation by liquid-chromatography-coupled mass spectrometry (LC–MS); details: mediterraneibacter gnavus, 2 µM
[19] = segatella copri, 12 h, 2 µM
Description: The drug is tested on Prevotella copri strain: DSM18205 for biotransformation. The drug concentrations were measured before and after a 12-h incubation by liquid-chromatography-coupled mass spectrometry (LC–MS)

[20] = The drug is tested on Collinsella aerofaciens strain: ATCC25986 for biotransformation. The drug concentrations were measured before and after a 12-h incubation by liquid-chromatography-coupled mass spectrometry (LC–MS); details: 2 µM
[21] = The drug is tested on Clostridium symbiosum strain: ATCC14940 for biotransformation. The drug concentrations were measured before and after a 12-h incubation by liquid-chromatography-coupled mass spectrometry (LC–MS); details: 2 µM
[22] = The drug is tested on Eubacterium rectale strain: ATCC33656 for biotransformation. The drug concentrations were measured before and after a 12-h incubation by liquid-chromatography-coupled mass spectrometry (LC–MS); details: agathobacter rectalis, 2 µM
[23] = The drug is tested on Blautia luti strain: DSM14534 for biotransformation. The drug concentrations were measured before and after a 12-h incubation by liquid-chromatography-coupled mass spectrometry (LC–MS); assay type: ADME; parameters: dose 2 uM, timepoint 0 vs 12 hours; details: 2 µM
[24] = The drug is tested on Bacteroides caccae strain: ATCC43185 for biotransformation. The drug concentrations were measured before and after a 12-h incubation by liquid-chromatography-coupled mass spectrometry (LC–MS); details: 2 µM
[25] = The drug is tested on Ruminococcus torques strain: ATCC27756 for biotransformation. The drug concentrations were measured before and after a 12-h incubation by liquid-chromatography-coupled mass spectrometry (LC–MS); assay type: ADME; parameters: dose 2 uM, timepoint 0 vs 12 hours; details: 2 µM
[26] = The drug is tested on Bacteroides finegoldii strain: DSM17565 for biotransformation. The drug concentrations were measured before and after a 12-h incubation by liquid-chromatography-coupled mass spectrometry (LC–MS); details: 2 µM
[27] = The drug is tested on Anaerococcus hydrogenalis strain: DSM7454 for biotransformation. The drug concentrations were measured before and after a 12-h incubation by liquid-chromatography-coupled mass spectrometry (LC–MS); details: 2 µM
[28] = The drug is tested on Escherichia coli strain: BW25113 for biotransformation. The drug concentrations were measured before and after a 12-h incubation by liquid-chromatography-coupled mass spectrometry (LC–MS); details: 2 µM
[29] = The drug is tested on Enterococcus faecalis strain: V583 for biotransformation. The drug concentrations were measured before and after a 12-h incubation by liquid-chromatography-coupled mass spectrometry (LC–MS); details: 2 µM
[30] = The drug is tested on Bacteroides fragilis strain: HMW610 for biotransformation. The drug concentrations were measured before and after a 12-h incubation by liquid-chromatography-coupled mass spectrometry (LC–MS); details: 2 µM
[31] = The drug is tested on Bifidobacterium breve strain: DSM20213 for biotransformation. The drug concentrations were measured before and after a 12-h incubation by liquid-chromatography-coupled mass spectrometry (LC–MS); details: 2 µM
[32] = The drug is tested on Bacteroides cellulosilyticus strain: DSM14838 for biotransformation. The drug concentrations were measured before and after a 12-h incubation by liquid-chromatography-coupled mass spectrometry (LC–MS); details: 2 µM
[33] = The drug is tested on Providencia rettgeri strain: DSM1131 for biotransformation. The drug concentrations were measured before and after a 12-h incubation by liquid-chromatography-coupled mass spectrometry (LC–MS); assay type: ADME; parameters: dose 2 uM, timepoint 0 vs 12 hours; details: 2 µM
[34] = The drug is tested on Bacteroides ovatus strain: ATCC8483 for biotransformation. The drug concentrations were measured before and after a 12-h incubation by liquid-chromatography-coupled mass spectrometry (LC–MS); details: 2 µM
[35] = bacteroides fragilis, 12 h, 2 µM
Description: The drug is tested on Bacteroides fragilis strain: NCTC 9343 for biotransformation. The drug concentrations were measured before and after a 12-h incubation by liquid-chromatography-coupled mass spectrometry (LC–MS)

[36] = bacteroides thetaiotaomicron, 12 h, 2 µM
Description: The drug is tested on Bacteroides thetaiotaomicron strain: VPI-5482 for biotransformation. The drug concentrations were measured before and after a 12-h incubation by liquid-chromatography-coupled mass spectrometry (LC–MS)

[37] = The drug is tested on Clostridium asparagiforme strain: DSM15981 for biotransformation. The drug concentrations were measured before and after a 12-h incubation by liquid-chromatography-coupled mass spectrometry (LC–MS); assay type: ADME; parameters: dose 2 uM, timepoint 0 vs 12 hours; details: enterocloster asparagiformis, 2 µM
[38] = anaerostipes sp., 12 h, 2 µM
Description: The drug is tested on Anaerostipes sp. strain: fecal isolate for biotransformation. The drug concentrations were measured before and after a 12-h incubation by liquid-chromatography-coupled mass spectrometry (LC–MS)

[39] = roseburia intestinalis, 12 h, 2 µM
Description: The drug is tested on Roseburia intestinalis strain: L1-82 for biotransformation. The drug concentrations were measured before and after a 12-h incubation by liquid-chromatography-coupled mass spectrometry (LC–MS)

[40] = enterocloster bolteae, 12 h, 2 µM
Description: The drug is tested on Clostridium bolteae strain: ATCCBAA-613 for biotransformation. The drug concentrations were measured before and after a 12-h incubation by liquid-chromatography-coupled mass spectrometry (LC–MS)

Cc1ccc(-c2cc(C(F)(F)F)nn2-c2ccc(S(N)(=O)=O)cc2)cc1 [CELECOXIB]
Bacterial Biotransformation [1]: Compound NOT metabolized
Bacterial Biotransformation [2]: Compound NOT metabolized
Bacterial Biotransformation [3]: Compound metabolized
Bacterial Biotransformation [4]: Compound NOT metabolized
Bacterial Biotransformation [5]: Compound NOT metabolized
Bacterial Biotransformation [6]: Compound NOT metabolized
Bacterial Biotransformation [7]: Compound NOT metabolized
Bacterial Biotransformation [8]: Compound NOT metabolized
Bacterial Biotransformation [9]: Compound NOT metabolized
Bacterial Biotransformation [10]: Compound NOT metabolized
Bacterial Biotransformation [11]: Compound NOT metabolized
Bacterial Biotransformation [12]: Compound NOT metabolized
Bacterial Biotransformation [13]: Compound NOT metabolized
Bacterial Biotransformation [14]: Compound NOT metabolized
Bacterial Biotransformation [15]: Compound NOT metabolized
Bacterial Biotransformation [16]: Compound NOT metabolized
Bacterial Biotransformation [17]: Compound NOT metabolized
Bacterial Biotransformation [18]: Compound NOT metabolized
Bacterial Biotransformation [19]: Compound metabolized
Bacterial Biotransformation [20]: Compound NOT metabolized
Bacterial Biotransformation [21]: Compound NOT metabolized
Bacterial Biotransformation [22]: Compound NOT metabolized
Bacterial Biotransformation [23]: Compound NOT metabolized
Bacterial Biotransformation [24]: Compound NOT metabolized
Bacterial Biotransformation [25]: Compound NOT metabolized
Bacterial Biotransformation [26]: Compound NOT metabolized
Bacterial Biotransformation [27]: Compound NOT metabolized
Bacterial Biotransformation [28]: Compound NOT metabolized
Bacterial Biotransformation [29]: Compound NOT metabolized
Bacterial Biotransformation [30]: Compound NOT metabolized
Bacterial Biotransformation [31]: Compound NOT metabolized
Bacterial Biotransformation [32]: Compound NOT metabolized
Bacterial Biotransformation [33]: Compound NOT metabolized
Bacterial Biotransformation [34]: Compound NOT metabolized
Bacterial Biotransformation [35]: Compound NOT metabolized
Bacterial Biotransformation [36]: Compound NOT metabolized
Bacterial Biotransformation [37]: Compound NOT metabolized
Bacterial Biotransformation [38]: Compound NOT metabolized
Bacterial Biotransformation [39]: Compound NOT metabolized
Bacterial Biotransformation [40]: Compound NOT metabolized
